This is an account of results in paper PMC8502973 (Frontiers in Physiology, 2021).

Series [1] in a line: Excipient (HP-CD) effects on food intake and body weight. The format is in vivo. Conditions: 2% HP-CD/saline, 1 mL/kg, 7 days, lean male rats n = 5. On the procedure:
As the excipient used to place ASK1476 in solution, HP-CD, was used in excess, a preliminary experiment was run to examine whether it produces any anorectic effects independently. Testing consisted of a 7-day normal saline treated phase followed by a 7-day 2% HP-CD/saline solution (dose 1 mL/kg) treated phase in lean male rats (n = 5; at start of HP-CD treatment: mean 410 g, SD 26 g). […] Food intake was continuously recorded using AccuScan DietMax (currently OmniTech Electronics, Inc., Diet System) cages and data were binned into 15-min intervals for analysis. The start of the 24-h food intake period aligned to the lights turning off in the animal room. Body weight was recorded, and treatment injections were administered just prior to the start of the dark cycle.

The test system of another series is V2R. Particulars: V2R agonist; no reference given; cited from earlier work. The text has this: Whereas the overall profile of ASK1476 met the primary aim of our studies including the enhanced stability of the OXTR activator in vivo, the molecule did display a significant activation of the V2R. As mentioned above, the receptor plays the key role in both urine and water homeostasis.

With Hydroxypropyl-β-cyclodextrin [HP-CD], in series [1] (95% CU −0.19 to 0.71, p = 0.187), the “7-day food intake, difference vs saline” value is given as 0.26 g. For the same substance, the “body weight gain, difference vs saline” value in series [1] (95% CU −0.99 to 0.95, p = 0.950) is -0.02 g. Consider desmopressin, for which the “side effects in the clinical setting” value in the series with V2R was “hyponatremia and renal water retention”.
